Eleven molecules from patent publication US11739063B2, “DREADD actuators” (The United States of America, as represented by the …, priority 2018, dated 2023) can be followed below.

“Also recorded” adds a separate entry of the source. Like-named read-outs stand apart in the source and are kept apart here.

In series [1] the target is T1, hM3Dq (Homo sapiens, UniProt P20309, A239G/Y149C). As to the kind of experiment: Radioligand binding assay, [3H]clozapine competition, hM3Dq membranes. The settings on record: for Ki: HEK-293 membranes, 2.5 nM [3H]clozapine, Cheng-Prusoff; for Binding to the tested DREADDs (in words): hM3Dq and hM4Di. More on the design: host or cells: HEK-293. On the procedure: (§1) HEK-293 cells were transfected with 5 μg/dish of pAAV plasmids encoding for hM3Dq (available from Addgene, Cambridge, Mass., plasmid #89149), hM4Di (available from Addgene, Cambridge, Mass., plasmid #89150) or a control vector and harvested 48 hours after transfection. […] The protein was quantified by the bicinchoninic acid method. […] Microscint-20 scintillation liquid ([…]) was added to the filter plates, plates were incubated overnight at room temperature and radioactivity counts were determined in a MICROBETA^2™ (PerkinElmer, Waltham, Mass.) plate counter with an efficiency of 41%. Competition curves were fitted to a one binding site model and Ki values were calculated using the Cheng-Prusoff equation.
T1 sequence (P20309 whole entry Y149C/A239G): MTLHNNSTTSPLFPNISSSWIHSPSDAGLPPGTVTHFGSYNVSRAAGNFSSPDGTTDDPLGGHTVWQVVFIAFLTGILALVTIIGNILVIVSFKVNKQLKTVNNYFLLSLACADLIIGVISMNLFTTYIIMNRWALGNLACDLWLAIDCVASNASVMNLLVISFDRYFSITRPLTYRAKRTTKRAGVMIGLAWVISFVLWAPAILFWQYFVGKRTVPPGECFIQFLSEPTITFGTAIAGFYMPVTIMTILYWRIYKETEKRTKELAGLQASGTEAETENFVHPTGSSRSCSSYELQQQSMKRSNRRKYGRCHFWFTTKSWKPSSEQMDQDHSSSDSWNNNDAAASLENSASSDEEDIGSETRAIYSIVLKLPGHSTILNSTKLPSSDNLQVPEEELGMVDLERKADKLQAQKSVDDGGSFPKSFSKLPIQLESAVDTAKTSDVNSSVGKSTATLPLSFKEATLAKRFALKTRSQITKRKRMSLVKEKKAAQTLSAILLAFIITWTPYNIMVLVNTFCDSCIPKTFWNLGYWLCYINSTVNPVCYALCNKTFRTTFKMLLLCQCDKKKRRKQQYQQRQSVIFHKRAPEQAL

The target in series [2] is T2, hM4Di (Homo sapiens, UniProt P08173, A203G/Y113C).
T2 sequence (P08173 1-479 Y113C/A203G): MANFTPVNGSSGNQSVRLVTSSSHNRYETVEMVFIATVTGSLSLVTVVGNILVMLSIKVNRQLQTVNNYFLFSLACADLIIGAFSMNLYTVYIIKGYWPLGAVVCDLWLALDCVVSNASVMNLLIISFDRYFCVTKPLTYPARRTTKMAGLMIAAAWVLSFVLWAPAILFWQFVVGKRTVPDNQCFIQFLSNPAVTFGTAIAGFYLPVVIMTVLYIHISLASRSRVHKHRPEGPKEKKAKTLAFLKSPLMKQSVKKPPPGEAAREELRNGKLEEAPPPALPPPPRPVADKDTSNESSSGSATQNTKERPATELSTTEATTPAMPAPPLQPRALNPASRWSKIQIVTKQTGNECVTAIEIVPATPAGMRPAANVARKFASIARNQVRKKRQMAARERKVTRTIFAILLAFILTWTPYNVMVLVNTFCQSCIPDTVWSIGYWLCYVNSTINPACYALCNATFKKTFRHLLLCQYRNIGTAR
Description: Radioligand binding assay, [3H]clozapine competition, hM4Di membranes. Conditions: HEK-293 membranes, 2.5 nM [3H]clozapine, Cheng-Prusoff. More on the design: host or cells: HEK-293. On the procedure:
as §1

Series [3] relates to D1-hM3Dq, D1-hM4Di or WT mice. As to the kind of experiment: FDG-PET brain metabolic mapping (DREAMM). It counts as in vivo. On the procedure:
The study was set up as follows. Mice (D1-hM3Dq, D1-hM4Di or WT littermates) were habituated to experimenter handling and fasted 16 hours before the experiment. On the day of the experiment, mice received an IP injection of vehicle (1 ml/kg) and were placed back into their home cages. Ten minutes later, mice were injected (IP) with 11 MBq of 2-deoxy-2-[^18F]fluoro-D-glucose (FDG, Cardinal Health, Westmont, Ill.) and placed back into their home cages. After 30 minutes, mice were anesthetized with 1.5% isoflurane, placed on a custom-made bed of a NANOSCAN small animal PET/CT scanner (Mediso Medical Imaging Systems) and scanned for 20 min on a static acquisition protocol, followed by a CT scan. […] In all cases, the PET data were reconstructed and co-registered to an MRI template as described above. Voxel-based repeated measures with Student's t-test comparing baseline to drug were performed, and the resulting parametric images were filtered for statistically significant (p<0.05) clusters larger than 100 contiguous voxels. All statistical parametric mapping analyses were performed using MATLAB R2016 (Mathworks, Chicago, Ill.) and SPM12 (University College London).

The test system of series [4] is mice with D1-hM3Dq receptors. As to the kind of experiment: Locomotor activity assay (open-field test). The format is in vivo. Conditions: 0.01, 0.1, 1 mg/kg intraperitoneal; compared with clozapine. As for the experimental part: Transgenic male and female mice (25-30 g, offspring of D1-Cre (heterozygous)×R26-hM3Dq/mCitrine (heterozygous) crossing) either heterozygous for both loci (CRE+, het het) or wild type for D1-Cre (CRE−, wt het) were tested for locomotor activity. The mice were injected (intraperitoneal) with the indicated dose of clozapine, compound I(g), or vehicle (buffered saline).

Series [5] concerns the target T1, hM3Dq. As to the kind of experiment: Calcium accumulation assay (GCaMP6f) in HEK293 cells with hM3Dq. The settings on record: for hM3Dq activation (fluorescence, calcium accumulation): cells with hM3Dq versus cells without DREADDs.
Description: The changes in fluorescence were read every 18 seconds for 5 minutes.
The target in series [6] is T3, hM4Di (Gi1) (Homo sapiens, UniProt P08173, A203G/Y113C).
T3 construct: host or cells: HEK-293
T3 sequence (P08173 1-479 Y113C/A203G): T2 sequence (P08173 1-479 Y113C/A203G)
As to the kind of experiment: BRET assay of Gi1 activation in HEK-293 cells with hM4Di. The format is cell-based. The settings on record: for EC50: BRET change 5 minutes after addition; for Gi1 activation (BRET ratio): cells with hM4Di versus cells without DREADDs. As for the experimental part:
(§2) Bioluminescence resonance energy transfer (“BRET”) assays were performed to detect receptor ligand-induced Gi/o protein activation. […] Forty-eight hours after transfection cells were harvested, washed and resuspended in phosphate-buffered saline (“PBS”). Approximately 200,000 cells/well were distributed in 96-well plates, and 5 μM Coelenterazine H (substrate for luciferase) was added to each well.
(§3) Results were calculated for the BRET change (BRET ratio for the corresponding compound minus BRET ratio in the absence of the compound) 5 minutes after the addition of the compounds.

For series [7], the system named is DREADDs (hM3Dq, hM4Di) and endogenous clozapine-binding sites. Description: Autoradiography, [3H]clozapine displacement in brain sections of wild-type and transgenic DREADD mice. The settings on record: about 3.5 nM [3H]clozapine, WT. As for the experimental part:
Flash frozen brain tissue was sectioned (20 μm) on a cryostat and thaw mounted onto ethanol-washed glass slides. […] Following incubation, the slides were washed with an incubation buffer for 5 mins (2×) followed by a 30 second dip in ice-cold deionized H2O. The slides were then air-dried, placed in a […]™ (GE Healthcare, UK) autoradiography cassette, covered with a BAS-TR2025 Storage Phosphor Screen (GE Healthcare, UK), exposed for 3-5 days, and imaged using a phosphorimager.

Series [8] deals with T2, hM4Di. Description: hM4Di-driven inhibition of light-evoked neuronal activation. The format is in vivo. The settings on record: 0.1 mg/kg.
Series [9] concerns the target T4, hM4Di (Go1) (Homo sapiens, UniProt P08173, A203G/Y113C).
T4 construct: host or cells: HEK-293
T4 sequence (P08173 1-479 Y113C/A203G): T2 sequence (P08173 1-479 Y113C/A203G)
Description: BRET assay of Go1 activation in HEK-293 cells with hM4Di. It counts as cell-based. Conditions: for EC50: BRET change 5 minutes after addition; for Go1 activation (BRET ratio): cells with hM4Di versus cells without DREADDs. As for the experimental part: as §2, §3
Background: BRET reads energy transfer from a luciferase to a nearby fluorophore.

The Ki is the dissociation constant of the complex between target and ligand, obtained from inhibition or displacement. The low end stands for tighter binding, the high end for weaker binding. Turning to `CCN1CCN(C2=Nc3cc(F)ccc3Nc3ccccc32)CC1` [Compound I(f), 11-(4-Ethylpiperazin-1-yl)-8-fluoro-5H-dibenzo[b,e][1,4]diazepine], the figures for the Ki in series [1] and in series [2] were 23.7 nM and 12.9 nM, respectively.
Usually EC50 stands for the concentration giving half of the maximal effect. For `CCN1CCN(C2=Nc3cc(Cl)ccc3Nc3c(F)cccc32)CC1` [Compound I(h), 8-Chloro-11-(4-ethylpiperazin-1-yl)-4-fluoro-5H-dibenzo[b,e][1,4]diazepine], the “Brain metabolism change (DREAMM)” value in series [3] (D1-hM3Dq mice, 0.1 mg/kg IP) is reported as “decreased metabolism”; in series [3] (D1-hM4Di mice, 0.1 mg/kg IP), “increased metabolism”. For the same molecule, the “Brain metabolic changes (FDG-PET)” value in series [3] (WT mice, 0.1 mg/kg IP) is “no significant brain metabolic changes”. The Ki in series [1] stood at 1.9 nM; in series [2] it was 3.6 nM. The “Binding to the tested DREADDs (in words)” value in series [1] was “especially effective at binding the tested DREADDs”. The “Reduction of locomotor activity (distance traveled)” value in series [4] is reported as “more effective than clozapine at reducing locomotor activity”. Further, the EC50 turned out to be 2.64 nM in [5], 0.073 nM in series [6] and 0.14 nM in [9]. Besides, in series [5], the “hM3Dq activation (fluorescence, calcium accumulation)” value is listed as “effective at activating hM3Dq”. Also, the “Gi1 activation (BRET ratio)” value in series [6] is “activate Gi1”. In addition, the “Displacement of [3H]clozapine binding” value in series [7] (at 10 nM) is “selectively displaced [^3H]clozapine binding to DREADDs but not to endogenous sites”; in series [7] (at 1 μM), “completely displaced [^3H]clozapine binding to both DREADDs and endogenous clozapine-binding sites”. The “Inhibition of light-evoked neuronal activation” value in series [8] was “rapid and potent hM4Di-driven inhibition”. The “Go1 activation (BRET ratio)” value in series [9] is reported as “activate Go1”.
For `CCN1CCN(C2=Nc3ccccc3Nc3cccc(F)c32)CC1` [Compound I(e), 11-(4-Ethylpiperazin-1-yl)-1-fluoro-5H-dibenzo[b,e][1,4]diazepine], the Ki was 4.8 nM in series [1] and 14.2 nM in series [2].
The matching figures for `CCN1CCN(C2=Nc3ccccc3Nc3ccc(F)cc32)CC1` [Compound I(b), 11-(4-Ethylpiperazin-1-yl)-2-fluoro-5H-dibenzo[b,e][1,4]diazepine]: 33.5 nM and 118 nM.
Regarding `CCN1CCN(C2=Nc3cc(Cl)ccc3Nc3cccc(F)c32)CC1` [Compound I(g), 8-Chloro-11-(4-ethylpiperazin-1-yl)-1-fluoro-5H-dibenzo[b,e][1,4]diazepine], in [1], the inhibition constant Ki was determined as 1.7 nM and the “Binding to the tested DREADDs (in words)” value is “especially effective at binding the tested DREADDs”. Besides, the “Reduction of locomotor activity (distance traveled)” value in series [4] is given as “more effective than clozapine at reducing locomotor activity”. Further, in series [5], the EC50 was determined as 5.15 nM and the “hM3Dq activation (fluorescence, calcium accumulation)” value is recorded as “effective at activating hM3Dq”. In [6], a half-maximal response (EC50) required 0.24 nM and the “Gi1 activation (BRET ratio)” value is reported as “activate Gi1”. Further, the affinity in series [2] corresponds to a Ki of 8.7 nM. Besides, in [9], the EC50 was 0.8 nM and the “Go1 activation (BRET ratio)” value is reported as “activate Go1”.
`CCN1CCN(C2=Nc3cc(Cl)ccc3Nc3ccc(F)cc32)CC1` [Compound I(a), 8-chloro-11-(4-ethylpiperazin-1-yl)-2-fluoro-5H-dibenzo[b,e][1,4]diazepine]: the “Recruitment of whole-brain functional networks (FDG-PET)” value in series [3] (D1-hM3Dq and D1-hM4Di mice, 0.1 mg/kg, n=4 per condition) was “opposing and differential recruitment of whole-brain functional networks”. Further, the Ki stood at 10.5 nM in [1] and 23.5 nM in [2].
Consider `[2H]C([2H])(C)N1CCN(C2=Nc3cc(Cl)ccc3Nc3ccccc32)CC1` [Compound 13, reference compound], for which the values for the EC50 in series [5], in series [6] and in series [9] were 1.43 nM, 0.067 nM and 0.063 nM, respectively.
Take `c1ccc2c(c1)N=C(N1CCNCC1)c1ccccc1N2` [Compound 21, reference compound]: the “Brain metabolic activity (FDG-PET)” value in series [3] (WT mice, 1 mg/kg) was “significant changes in brain metabolic activity; also recorded: decreased metabolic activity of multiple networks”. The EC50 in [5] amounted to 1.66 nM; in series [6], 2.7 nM; in [9], 1.7 nM.
For the molecule `C[N+]1([O-])CCN(C2=Nc3cc(Cl)ccc3Nc3ccccc32)CC1` [CNO, clozapine n-oxide, reference compound], the EC50 turned out to be 11.3 nM in series [5] (read-out: EC50 value for hM3Dq, mean, calcium accumulation, fluorescence); 13 nM in series [6]; 3.1 nM in series [9].
`CCN1CCN(C2=Nc3cc(Cl)ccc3Nc3cc(F)ccc32)CC1` [Compound I(c), 8-Chloro-11-(4-ethylpiperazin-1-yl)-3-fluoro-5H-dibenzo[b,e][1,4]diazepine]: the Ki in series [1] was 51.4 nM; in [2], 51.3 nM.
With `CCN1CCN(C2=Nc3ccccc3Nc3cc(F)ccc32)CC1` [Compound I(d), 11-(4-Ethylpiperazin-1-yl)-3-fluoro-5H-dibenzo[b,e][1,4]diazepine], the Ki in series [1] is 101 nM; in [2] it was 149 nM.
